# Biological target: T1, Ectonucleotide pyrophosphatase/phosphodiesterase family member 1 (Homo sapiens, UniProt P22413)
# T1 sequence (P22413 whole entry): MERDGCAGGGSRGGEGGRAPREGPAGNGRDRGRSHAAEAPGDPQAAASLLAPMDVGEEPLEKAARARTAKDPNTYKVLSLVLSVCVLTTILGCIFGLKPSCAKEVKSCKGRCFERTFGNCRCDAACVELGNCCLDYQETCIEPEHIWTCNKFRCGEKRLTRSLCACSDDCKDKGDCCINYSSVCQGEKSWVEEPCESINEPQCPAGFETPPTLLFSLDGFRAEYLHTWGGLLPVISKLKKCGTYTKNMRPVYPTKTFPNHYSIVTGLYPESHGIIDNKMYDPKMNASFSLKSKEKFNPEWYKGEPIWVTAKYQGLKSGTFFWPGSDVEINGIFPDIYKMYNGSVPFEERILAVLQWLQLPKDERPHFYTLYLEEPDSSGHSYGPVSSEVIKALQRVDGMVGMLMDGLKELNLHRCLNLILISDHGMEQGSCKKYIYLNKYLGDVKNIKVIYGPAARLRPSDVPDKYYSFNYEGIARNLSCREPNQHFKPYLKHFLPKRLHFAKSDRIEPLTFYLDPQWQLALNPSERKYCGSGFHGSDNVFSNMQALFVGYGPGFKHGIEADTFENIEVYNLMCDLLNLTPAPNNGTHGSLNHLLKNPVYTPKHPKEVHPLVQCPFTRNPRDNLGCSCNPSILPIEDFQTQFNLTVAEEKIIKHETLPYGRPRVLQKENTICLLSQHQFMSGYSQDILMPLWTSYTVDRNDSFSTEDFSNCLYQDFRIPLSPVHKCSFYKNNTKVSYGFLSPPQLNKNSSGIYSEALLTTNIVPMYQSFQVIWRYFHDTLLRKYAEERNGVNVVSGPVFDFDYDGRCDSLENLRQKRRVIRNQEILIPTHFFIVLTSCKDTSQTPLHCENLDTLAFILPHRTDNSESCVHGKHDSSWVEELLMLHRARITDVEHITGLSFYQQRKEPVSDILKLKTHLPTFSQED
# Test: ENPP1 Enzyme Assay with eGAMP Substrate
# Experimental: ENPP1 hydrolyzes nucleotides or nucleotide derivatives to produce nucleoside -5′-monophosphate and pyrophosphate. in addition, ENPP1 hydrolyzes 2′,3′-cGAMP to produce 5′-adenosine monophosphate (AMP) and 5′-guanosine monophosphate (GMP). AMP produced from the reaction is measured using the AMP-Glo kit (Promega). The AMP-Glo kit contains two reagents. The first reagent terminates the AMP-producing enzymatic reaction, removes ATP and converts the produced AMP into ADP. The second reagent converts ADP to ATP which is used to generate luminescence in the luciferase reaction. […] CaCl2, 1 μM ZnCl2, 5% glycerol and 1% DMSO. […] The reaction was initiated by addition of cGAMP (at a final concentration of 5 μM) and reacted at 37 C. for 90 minutes. At the end of the reaction, 10 μl of the AMP-Glo first reagent was added to stop the reaction and the result was stored at room temperature for […]. After storage, 20 μl of an AMP detection solution (a mixture of AMP-Glo II reagent and Kinase-Gio at a ratio of 1:100) was added and stored at room. temperature for 1 hour. Luminescence signals were measured using a Victor plate reader (Perkin Elmer). The maximal activity control (containing enzymes and substrates only in the presence of 1% DMSO; MAX) and the minimal activity control (containing substrates and 1% DMSO; MIN) were evaluated simultaneously. In each experiment, serially diluted reference ENPP1 inhibitors were tested together. IC50, indicating % residual activity versus compound concentration was determined by fitting inhibition curves using the 3-parameter analysis of GraphPad Prism software. Serially diluted samples of one compound were tested two or more times and an average IC50 of each compound was calculated.
row,IC50 [µM],Compound
1,< 1,"NS(=O)(=O)Nc1cccc(-c2n[nH]c(=O)c3ccccc23)c1 [US20230159469, Example 87]"
2,< 1,"N=S(=O)(O)NCc1ccc(-c2n[nH]c(=O)c3ccccc23)cc1 [US20230159469, Example 96]"
3,≥ 1,"COc1cc2c(-c3ccc(CNS(=N)(=O)O)cc3)nn(C)c(=O)c2cc1OC [US20230159469, Example 108]"
